US4874773A, “3-Aminocarbonyl-1,4-dihydropyridine-5-carboxylic acid compounds, and pharmaceutical composition containing the same” (priority 1985, dated 1989)
pEC50: −log10 of the molar value. Where two headings read alike, the source gives them in different places.

Key:
[1] = system: isolated heart; assay: Experiment 2-1 Activity on isolated heart; parameters: species or system Japanese white rabbit; conditions: Oryctolagus cuniculus, 3 μg/heart; for activation at 3 µg/heart: read-out: Increase of coronary perfusion; for inhibition at 3 µg/heart, 3 µg/heart: read-out: Inhibitory rate of systole; for inhibition at 3 µg/heart: read-out: Reducing rate of heart pulse
Description: Japanese white rabbit (weighing 2.2-2.5 kg) was anesthetized by introvenous injection of nembutal (20 mg/kg) and then sacrificed by bleeding from common carotid artery. […] After stabilizing the heart preparation for 90 minutes, the test compound was administered. There were measured the perfusion volume with a drop-counting meter (ET-600G type, manufactured by Nippon Koden K.K.) and the heart pulse and the contractility via a force-displacement transducer (FD pick up, SB-IT type, manufactured by Nippon Koden K.K.) (for measuring heart pulse, an instant pulse meter (AT-601G type, minufactured by Nippon Koden K.K.) being further used).

[2] = system: isolated aorta; assay: Experiment 3 Relaxing activity on the isolated aorta (30 mM KCl contracted); parameters: species or system Japanese white rabbit; conditions: for pEC50: Oryctolagus cuniculus, 30 mM KCl contraction, maximum relaxation by papaverine = 100%, read-out: EC50 (concentration for 50% relaxation); for relaxing / vasodilating activity on isolated aorta (in words): Table 8, comparison with nifedipine and nicardipine hydrochloride, etc. where stated
Description: Japanese white rabbit (weighing 2.3-2.7 kg) was sacrificed by bleeding from common carotid artery. Immediately, the aorta was isolated and cut into a sprial strip. The strip preparation was vertically suspended under a resting tension of 2.0 g in a tissue bath containing 20 ml of modified Ringer solution while bubbling with a mixture of 95% O2 +5% CO2 by connecting one end of the strip to a lever of the above-mentioned FD pick up. The aortic strip was contracted with 30 mM KCl. When the contraction became constant, the test compound was accumulatively administered, and the relaxing effect was measured. After the final treatment, 10^-4T M papaverine was administered and the maximum relaxation obtained thereby was taken as 100%. In comparison with the maximum relaxation obtained by papaverine, the rate of relaxation by the test compounds was evaluated, and the concentration of the test compounds for obtaining 50% relaxation (EC50) was calculated.
The test compound was dissolved in ethanol, and the solution was diluted in 100 to 1×10^4 folds with a nutrient solution, and the diluted solution was administered.

[3] = system: isolated heart; assay: Experiment 2-2 Activity onto the isolated heart (with duration); parameters: species or system Japanese white rabbit; conditions: for Coronary perfusion Duration: time until perfusion volume returned to initial level; for activation at 1 µg/heart / inhibition at 1 µg/heart / activation at 3 µg/heart / inhibition at 3 µg/heart: Oryctolagus cuniculus; for activation at 1 µg/heart / activation at 3 µg/heart: read-out: Coronary perfusion Increase
Description: Japanese white rabbit (weighing 2.2-2.5 kg) was anesthetized by introvenous injection of nembutal (20 mg/kg) and then sacrificed by bleeding from common carotid artery. […] There were measured the perfusion volume with a drop-counting meter (ET-600G type, manufactured by Nippon Koden K.K.) and the heart pulse and the contractility via a force-displacement transducer (FD pick up, SB-IT type, manufactured by Nippon Koden K.K.) (for measuring heart pulse, an instant pulse meter (AT-601G type, minufactured by Nippon Koden K.K.) being further used).
The test compounds were dissolved in ethanol, and the solution was diluted in 100-fold with purified water, and the diluted solution was administered in an amount of 0.1 ml/heart (i.e. 3 μg/heart).
The activity was measured in the same manner as described in Experiment 2-1 except that in some test compounds, the dose was in 1 μg/heart. Besides, the duration of the activity was evaluated by counting the time until the coronary perfusion volume became to the initial level before the administration of the test compound.

[4] = system: Spontaneously hypertensive male rats; assay: Experiment 1-1 Hypotensive activity (oral, conscious spontaneously hypertensive rats); assay type: in vivo, rat; conditions: 10 mg/kg oral
[5] = 1 μg/heart, read-out: Inhibitory rate of systole
[6] = 1 μg/heart, read-out: Reducing rate of heart pulse
[7] = 3 μg/heart, read-out: Inhibitory rate of systole
[8] = 3 μg/heart, read-out: Reducing rate of heart pulse

| pEC50 [2] | Compound | Coronary perfusion Duration ([3]; 3 μg/heart) [min] | activation at 3 µg/heart ([3]; 3 μg/heart) [%] | inhibition at 3 µg/heart [3, 7] [%] | inhibition at 3 µg/heart [3, 8] [%] | also measured |
| --- | --- | --- | --- | --- | --- | --- |
|  | CCCNC(=O)C1=C(C)NC(C)=C(C(=O)OCCC(C)C)C1c1ccccc1[N+](=O)[O-] (stereo not shown) [Example 40] |  |  |  |  | activation at 3 µg/heart [1]: 25%; inhibition at 3 µg/heart, 3 µg/heart [1]: 14%; inhibition at 3 µg/heart [1]: 1% |
| 7.40 | CCCCCOC(=O)C1=C(C)NC(C)=C(C(=O)NCCC)C1c1ccccc1[N+](=O)[O-] (stereo not shown) [Example 39] |  |  |  |  | relaxing / vasodilating activity on isolated aorta (in words) [2]: the same or more potent activity |
| 6.42 | CCCCCCCOC(=O)C1=C(C)NC(C)=C(C(=O)NCCC)C1c1ccccc1[N+](=O)[O-] (stereo not shown) [Example 42] |  |  |  |  |  |
|  | CCCCCCCCCOC(=O)C1=C(C)NC(C)=C(C(=O)NC2CCCC2)C1c1ccccc1[N+](=O)[O-] (stereo not shown) [Example 87, n-nonyl 2,6-dimethyl-3-cyclopentylaminocarbonyl-4-(o-nitrophenyl)-1,4-dihydropyridine-5-carboxylate] |  |  |  |  | Coronary perfusion Duration ([3]; 1 μg/heart): 60 min; activation at 1 µg/heart ([3]; 1 μg/heart): 40%; inhibition at 1 µg/heart [3, 5]: 15%; inhibition at 1 µg/heart [3, 6]: 5% |
| 6.21 | CCCCCOC(=O)C1=C(C)NC(C)=C(C(N)=O)C1c1ccccc1[N+](=O)[O-] (stereo not shown) [Example 16] |  |  |  |  |  |
|  | CC1=C(C(=O)NC2CC2)C(c2ccccc2[N+](=O)[O-])C(C(=O)OCCCC(C)C)=C(C)N1 (stereo not shown) [Example 96] | < 10 | 20 | 10 | 0 |  |
|  | CCCOC(=O)C1=C(C)NC(C)=C(C(=O)NC2CC2)C1c1ccccc1[N+](=O)[O-] (stereo not shown) [Example 89] | < 10 | 30 | 35 | 30 |  |
| 6.82 | CCCOC(=O)C1=C(C)NC(C)=C(C(=O)NC(C)C)C1c1cccc([N+](=O)[O-])c1 (stereo not shown) [Example 62] |  |  |  |  | activation at 3 µg/heart [1]: 20%; inhibition at 3 µg/heart, 3 µg/heart [1]: 2%; inhibition at 3 µg/heart [1]: 6% |
|  | CC1=C(C(=O)NC2CC2)C(c2ccccc2[N+](=O)[O-])C(C(=O)OCC(C)C)=C(C)N1 (stereo not shown) [Example 92] | < 10 | 10 | 10 | 5 |  |
|  | CCCCCCCOC(=O)C1=C(C)NC(C)=C(C(=O)NC2CC2)C1c1ccccc1[N+](=O)[O-] (stereo not shown) [Example 81, n-heptyl 2,6-dimethyl-3-cyclopropylaminocarbonyl-4-(o-nitrophenyl)-1,4-dihydropyridine-5-carboxylate] | 10 to 15 | 15 | 15 | 0 |  |
| 6.40 | CCCOC(=O)C1=C(C)NC(C)=C(C(N)=O)C1c1ccccc1[N+](=O)[O-] (stereo not shown) [Example 10] |  |  |  |  |  |
|  | CCCCCCOC(=O)C1=C(C)NC(C)=C(C(=O)NC2CC2)C1c1ccccc1[N+](=O)[O-] (stereo not shown) [Example 95] | 10 to 15 | 20 | 15 | 10 |  |
|  | CCCCOC(=O)C1=C(C)NC(C)=C(C(=O)NC2CC2)C1c1ccccc1[N+](=O)[O-] (stereo not shown) [Example 91] | < 10 | 20 | 35 | 10 |  |
|  | COC(=O)C1=C(C)NC(C)=C(C(=O)NC2CCCC2)C1c1ccccc1[N+](=O)[O-] (stereo not shown) [Example 84, methyl 2,6-dimethyl-3-cyclopentylaminocarbonyl-4-(o-nitrophenyl)-1,4-dihydropyridine-5-carboxylate] |  |  |  |  | Coronary perfusion Duration ([3]; 1 μg/heart): 20 to 30 min; activation at 1 µg/heart ([3]; 1 μg/heart): 30%; inhibition at 1 µg/heart [3, 5]: 15%; inhibition at 1 µg/heart [3, 6]: 20% |
| 6.15 | CCC(CC)OC(=O)C1=C(C)NC(C)=C(C(=O)NC(C)C)C1c1ccccc1[N+](=O)[O-] (stereo not shown) [Example 50] |  |  |  |  |  |
|  | CC1=C(C(=O)NC2CC2)C(c2ccccc2[N+](=O)[O-])C(C(=O)OCCC(C)C)=C(C)N1 (stereo not shown) [Example 94] | < 10 | 15 | 10 | 0 |  |
|  | CC1=C(C(=O)NC(C)C)C(c2cccc([N+](=O)[O-])c2)C(C(=O)OC(C)C)=C(C)N1 (stereo not shown) [Example 63] |  |  |  |  | Recovering time [4]: 1.5 h; Time for recovering 1/2 of max. hypotension [4]: 1.0 h; Time until reaching to max. hypotension [4]: 15 min; Maximum hypotension ([4]; mean blood pressure): 7 mmHg |
|  | CCCCCCCCOC(=O)C1=C(C)NC(C)=C(C(=O)NC2CCCC2)C1c1ccccc1[N+](=O)[O-] (stereo not shown) [Example 86, n-octyl 2,6-dimethyl-3-cyclopentylaminocarbonyl-4-(o-nitrophenyl)-1,4-dihydropyridine-5-carboxylate] |  |  |  |  | Coronary perfusion Duration ([3]; 1 μg/heart): 60 min; activation at 1 µg/heart ([3]; 1 μg/heart): 50%; inhibition at 1 µg/heart [3, 5]: 15%; inhibition at 1 µg/heart [3, 6]: 20% |
| 6.17 | CCOC(=O)C1=C(C)NC(C)=C(C(N)=O)C1c1ccccc1[N+](=O)[O-] (stereo not shown) [Example 9] |  |  |  |  |  |
| 7.51 | CCNC(=O)C1=C(C)NC(C)=C(C(=O)OCCC(C)C)C1c1ccccc1[N+](=O)[O-] (stereo not shown) [Example 33] |  |  |  |  | relaxing / vasodilating activity on isolated aorta (in words) [2]: the same or more potent activity |
|  | CC1=C(C(=O)NC2CC2)C(c2ccccc2[N+](=O)[O-])C(C(=O)OC(C)C)=C(C)N1 (stereo not shown) [Example 90] | < 10 | 15 | 10 | 5 |  |
| 6.49 | CC1=C(C(N)=O)C(c2ccccc2[N+](=O)[O-])C(C(=O)OC(C)C)=C(C)N1 (stereo not shown) [Example 11] |  |  |  |  |  |
| 7.15 | CCCCCOC(=O)C1=C(C)NC(C)=C(C(=O)NC(C)C)C1c1cccc([N+](=O)[O-])c1 (stereo not shown) [Example 66] |  |  |  |  | relaxing / vasodilating activity on isolated aorta (in words) [2]: the same or more potent activity; activation at 3 µg/heart [1]: 16%; inhibition at 3 µg/heart, 3 µg/heart [1]: 15%; inhibition at 3 µg/heart [1]: 13% |
| 6.15 | CC1=C(C(N)=O)C(c2ccccc2[N+](=O)[O-])C(C(=O)OC(C)C(C)C)=C(C)N1 (stereo not shown) [Example 18] |  |  |  |  |  |
|  | CCCCCOC(=O)C1=C(C)NC(C)=C(C(=O)NC2CC2)C1c1ccccc1[N+](=O)[O-] (stereo not shown) [Example 93] | 20 | 20 | 20 | 15 |  |
| 6.24 | CCCCNC(=O)C1=C(C)NC(C)=C(C(=O)OCCCC)C1c1cccc([N+](=O)[O-])c1 (stereo not shown) [Example 69] |  |  |  |  |  |
|  | CCOC(=O)C1=C(C)NC(C)=C(C(=O)NC2CC2)C1c1ccccc1[N+](=O)[O-] (stereo not shown) [Example 88] | < 10 | 35 | 30 | 30 |  |
|  | CCNC(=O)C1=C(C)NC(C)=C(C(=O)OC)C1c1ccccc1[N+](=O)[O-] (stereo not shown) [D, reference compound] |  |  |  |  | activation at 3 µg/heart [1]: 20%; inhibition at 3 µg/heart, 3 µg/heart [1]: 15%; inhibition at 3 µg/heart [1]: 5% |
| 6.89 | CCCCCCOC(=O)C1=C(C)NC(C)=C(C(=O)NCCC)C1c1ccccc1[N+](=O)[O-] (stereo not shown) [Example 41] |  |  |  |  |  |
|  | COC(=O)C1=C(C)NC(C)=C(C(=O)NC2CC2)C1c1ccccc1[N+](=O)[O-] (stereo not shown) [Example 80, methyl 2,6-dimethyl-3-cyclopropylaminocarbonyl-4-(o-nitrophenyl)-1,4-dihydropyridine-5-carboxylate] | < 10 | 25 | 15 | 5 |  |
